Measured values from patent US5696083A, “Personal care composition containing pyrithione and polymyxin” (Olin Corporation, priority 1994, dated 1997).

Experiments:
Assay in all cases: MIC in Tryptic Soy Broth, compounds alone and in mixtures
Assay type in all cases: cell-based
Alcaligens faecalis = settings: 28° C.; for Minimum Inhibitory Concentration, Compound Used Alone: Tryptic Soy Broth
Experimental: (§1) Determinations of minimum inhibitory concentrations (MIC's) of the two compounds (pyrithione salts and/or polymyxin sulfate) in a nutrient broth (alone and in mixtures) were conducted to evaluate interactions. Stock solutions of pyrithione salts and/or polymyxin salts were diluted in Tryptic Soy Broth (Difco), and the dilutions were inoculated with an equal volume of bacterial culture (10^6 /ml) or fungal spore suspension (10^5 /ml) in Tryptic Soy Broth and incubated at 28° C. for 3-7 days.
(§2) The interactions of the antimicrobials were determined according to accepted procedures (M. C. Berenbaum [Tables 1 and 2] and P. F. Dougherty "Microdilution Transfer Plate Technique for Determining In Vitro Synergy of Antimicrobial Agents", ANTIMICROBIAL AGENTS AND CHEMOTHERAPY, Vol. 11, No. 2, p. 225-228 (Feb. 1977, American Society for Microbiology) [Tables 3 and 4]). The concentration of each agent in the combination that inhibits the organisms is expressed as a fraction of the concentration that causes the same effect when the same agent is tested alone (i.e., its fractional inhibitory concentration, FIC). If the sum of the FIC's is 1, the combination is additive in its antimicrobial effect; if the sum is <1, the combination is synergistic; and if the sum is >1, the combination is antagonistic.
(§3) ^a Compounds were serially diluted in Tryptic soy Broth (DIFCO),
(§4) ^b Each dilution contained 10^6 bacteria/ml of 10^5 fungi/ml.
(§5) ^a Stock solutions of ZP in dimethylsulfoxide and PB in sterile water

Aspergillus niger = settings: 28° C.; for Minimum Inhibitory Concentration, Compound Used Alone: Tryptic Soy Broth
Experimental: as §1, §2, §3, §4, §5

Aureobasidium pullulans = settings: 28° C.; for Minimum Inhibitory Concentration, Compound Used Alone: Tryptic Soy Broth
Experimental: as §1, §2, §3, §4, §5

Candida albicans = settings: 28° C.; for Minimum Inhibitory Concentration, Compound Used Alone: Tryptic Soy Broth
Experimental: as §1, §2, §3, §4, §5

Cephalosporium sp. = settings: 28° C.; for Minimum Inhibitory Concentration, Compound Used Alone: Tryptic Soy Broth
Experimental: as §1, §2, §3, §4, §5

Chaetomium globosium = settings: 28° C.; for Minimum Inhibitory Concentration, Compound Used Alone: Tryptic Soy Broth
Experimental: as §1, §2, §3, §4, §5

Citrobacter freundii = settings: 28° C.; for Minimum Inhibitory Concentration, Compound Used Alone: Tryptic Soy Broth
Experimental: as §1, §2, §3, §4, §5

Fusarium solani = settings: 28° C.; for Minimum Inhibitory Concentration, Compound Used Alone: Tryptic Soy Broth
Experimental: as §1, §2, §3, §4, §5

Gliocladium virens = settings: 28° C.; for Minimum Inhibitory Concentration, Compound Used Alone: Tryptic Soy Broth
Experimental: as §1, §2, §3, §4, §5

Penicillin pinophilium = settings: 28° C.; for Minimum Inhibitory Concentration, Compound Used Alone: Tryptic Soy Broth
Experimental: as §1, §2, §3, §4, §5

Proteus mirabilis = settings: 28° C.; for Minimum Inhibitory Concentration, Compound Used Alone: Tryptic Soy Broth
Experimental: as §1, §2, §3, §4, §5

Pseudomonas Stutzeri = settings: 28° C.; for Minimum Inhibitory Concentration, Compound Used Alone: Tryptic Soy Broth
Experimental: as §1, §2, §3, §4, §5

Pseudomonas aeruginosa = settings: 28° C.; for Minimum Inhibitory Concentration, Compound Used Alone: Tryptic Soy Broth
Experimental: as §1, §2, §3, §4, §5

Pseudomonas fluorescens = settings: 28° C.; for Minimum Inhibitory Concentration, Compound Used Alone: Tryptic Soy Broth
Experimental: as §1, §2, §3, §4, §5

Pseudomonas oleovorans = settings: 28° C.; for Minimum Inhibitory Concentration, Compound Used Alone: Tryptic Soy Broth
Experimental: as §1, §2, §3, §4, §5

Pseudomonas rubescens = settings: 28° C.; for Minimum Inhibitory Concentration, Compound Used Alone: Tryptic Soy Broth
Experimental: as §1, §2, §3, §4, §5

[1] = system: Trichophyton mentagrophytes; settings: 28° C.; for Minimum Inhibitory Concentration, Compound Used Alone: Tryptic Soy Broth
Experimental: as §1, §2, §3, §4, §5

Fusarium sp. = settings: 28° C.
Excerpt: as §3, §4, §5

[2] = Table 1, 3 days, PB sulfate 7610 units/mg
[3] = Table 2, 6 days, PB sulfate 7730 units/mg
[4] = Table 1, 6-7 days, PB sulfate 7610 units/mg
[5] = Table 2, 7 days, PB sulfate 7730 units/mg
[6] = Table 2, concentration of the component in ZP+PB mixture, ZP/PB ratio 1/32-1/8, 7 days
[7] = Table 1, concentration of the component in SP+PB mixture, SP/PB ratio 1/20-1/10, 6-7 days
[8] = Table 1, concentration of the component in SP+PB mixture, SP/PB ratio 1, 6-7 days
[9] = Table 2, concentration of the component in ZP+PB mixture, ZP/PB ratio 1/8-1, 7 days
[10] = Table 1, concentration of the component in SP+PB mixture, SP/PB ratio 650, 3 days

Polymyxin B sulfate [PB]
Minimum Inhibitory Concentration, Compound Used Alone (Alcaligens faecalis; [2]): 1.4 ppm | Minimum Inhibitory Concentration, Mixture (Alcaligens faecalis; Table 1, concentration of the component in SP+PB mixture, SP/PB ratio 5-41, 3 days): 0.5 ppm | Minimum Inhibitory Concentration, Compound Used Alone (Alcaligens faecalis; [3]): 3.3 ppm | Minimum Inhibitory Concentration, Mixture (Alcaligens faecalis; Table 2, concentration of the component in ZP+PB mixture, ZP/PB ratio 8-32, 6 days): 0.6 ppm | Minimum Inhibitory Concentration, Compound Used Alone (Aspergillus niger; [4]): 1536.0 ppm | Minimum Inhibitory Concentration, Mixture (Aspergillus niger; Table 1, concentration of the component in SP+PB mixture, SP/PB ratio 1/10, 6-7 days): 256.0 ppm | Minimum Inhibitory Concentration, Compound Used Alone (Aspergillus niger; [5]): 1024.0 ppm | Minimum Inhibitory Concentration, Mixture (Aspergillus niger; [6]): 298.7 ppm | Minimum Inhibitory Concentration, Compound Used Alone (Aureobasidium pullulans; [4]): 256.0 ppm | Minimum Inhibitory Concentration, Mixture (Aureobasidium pullulans; [7]): 48.0 ppm | Minimum Inhibitory Concentration, Compound Used Alone (Aureobasidium pullulans; [5]): 288.0 ppm | Minimum Inhibitory Concentration, Mixture (Aureobasidium pullulans; Table 2, concentration of the component in ZP+PB mixture, ZP/PB ratio 1/32-1/16, 7 days): 80.0 ppm | Minimum Inhibitory Concentration, Compound Used Alone (Candida albicans; [4]): 256.0 ppm | Minimum Inhibitory Concentration, Mixture (Candida albicans; [7]): 64.0 ppm | Minimum Inhibitory Concentration, Compound Used Alone (Candida albicans; [5]): 341.3 ppm | Minimum Inhibitory Concentration, Mixture (Candida albicans; [6]): 74.7 ppm | Minimum Inhibitory Concentration, Compound Used Alone (Cephalosporium sp.; [4]): 256.0 ppm | Minimum Inhibitory Concentration, Mixture (Cephalosporium sp.; [8]): 12.0 ppm | Minimum Inhibitory Concentration, Compound Used Alone (Cephalosporium sp.; [5]): 170.7 ppm | Minimum Inhibitory Concentration, Mixture (Cephalosporium sp.; Table 2, concentration of the component in ZP+PB mixture, ZP/PB ratio 1/16-1/8, 7 days): 42.7 ppm | Minimum Inhibitory Concentration, Compound Used Alone (Chaetomium globosium; [4]): 24.0 ppm | Minimum Inhibitory Concentration, Mixture (Chaetomium globosium; Table 1, concentration of the component in SP+PB mixture, SP/PB ratio 1/10-1/5, 6-7 days): 16.0 ppm | Minimum Inhibitory Concentration, Compound Used Alone (Chaetomium globosium; [5]): 85.3 ppm | Minimum Inhibitory Concentration, Mixture (Chaetomium globosium; [9]): 37.3 ppm | Minimum Inhibitory Concentration, Compound Used Alone (Citrobacter freundii; [2]): 0.5 ppm | Minimum Inhibitory Concentration, Mixture (Citrobacter freundii; Table 1, concentration of the component in SP+PB mixture, SP/PB ratio 41-81, 3 days): 0.1 ppm | Minimum Inhibitory Concentration, Compound Used Alone (Citrobacter freundii; [3]): 0.4 ppm | Minimum Inhibitory Concentration, Mixture (Citrobacter freundii; Table 2, concentration of the component in ZP+PB mixture, ZP/PB ratio 16-64, 6 days): 0.1 ppm | Minimum Inhibitory Concentration, Compound Used Alone (Fusarium solani; [4]): 128.0 ppm | Minimum Inhibitory Concentration, Mixture (Fusarium solani; [8]): 32.0 ppm | Minimum Inhibitory Concentration, Compound Used Alone (Fusarium solani; [5]): 85.3 ppm | Minimum Inhibitory Concentration, Mixture (Fusarium solani; [9]): 37.3 ppm | Minimum Inhibitory Concentration, Compound Used Alone (Gliocladium virens; [4]): 74.7 ppm | Minimum Inhibitory Concentration, Mixture (Gliocladium virens; Table 1, concentration of the component in SP+PB mixture, SP/PB ratio 1/10-1, 6-7 days): 21.3 ppm | Minimum Inhibitory Concentration, Compound Used Alone (Gliocladium virens; [5]): 64.0 ppm | Minimum Inhibitory Concentration, Mixture (Gliocladium virens; Table 2, concentration of the component in ZP+PB mixture, ZP/PB ratio 1-2, 7 days): 20.0 ppm | Minimum Inhibitory Concentration, Compound Used Alone (Penicillin pinophilium; [4]): 256.0 ppm | Minimum Inhibitory Concentration, Mixture (Penicillin pinophilium; [7]): 48.0 ppm | Minimum Inhibitory Concentration, Compound Used Alone (Penicillin pinophilium; [5]): 128.0 ppm | Minimum Inhibitory Concentration, Mixture (Penicillin pinophilium; Table 2, concentration of the component in ZP+PB mixture, ZP/PB ratio 1/8, 7 days): 32.0 ppm | Minimum Inhibitory Concentration, Compound Used Alone (Proteus mirabilis; [2]): > 2048.0 ppm | Minimum Inhibitory Concentration, Mixture (Proteus mirabilis; Table 1, concentration of the component in SP+PB mixture, SP/PB ratio 1/20-1, 3 days): 288.0 ppm | Minimum Inhibitory Concentration, Compound Used Alone (Proteus mirabilis; [3]): > 2048.0 ppm | Minimum Inhibitory Concentration, Mixture (Proteus mirabilis; Table 2, concentration of the component in ZP+PB mixture, ZP/PB ratio 1/32, 6 days): 64.0 ppm | Minimum Inhibitory Concentration, Compound Used Alone (Pseudomonas Stutzeri; [2]): 0.3 ppm | Minimum Inhibitory Concentration, Mixture (Pseudomonas Stutzeri; Table 1, concentration of the component in SP+PB mixture, SP/PB ratio 325-650, 3 days): 0.1 ppm | Minimum Inhibitory Concentration, Compound Used Alone (Pseudomonas Stutzeri; [3]): 0.3 ppm | Minimum Inhibitory Concentration, Mixture (Pseudomonas Stutzeri; Table 2, concentration of the component in ZP+PB mixture, ZP/PB ratio 16-128, 6 days): < 0.1 ppm | Minimum Inhibitory Concentration, Compound Used Alone (Pseudomonas aeruginosa; [2]): 0.7 ppm | Minimum Inhibitory Concentration, Mixture (Pseudomonas aeruginosa; Table 1, concentration of the component in SP+PB mixture, SP/PB ratio 163-325, 3 days): 0.3 ppm | Minimum Inhibitory Concentration, Compound Used Alone (Pseudomonas aeruginosa; [3]): 1.0 ppm | Minimum Inhibitory Concentration, Mixture (Pseudomonas aeruginosa; Table 2, concentration of the component in ZP+PB mixture, ZP/PB ratio 128-256, 6 days): 0.5 ppm | Minimum Inhibitory Concentration, Compound Used Alone (Pseudomonas fluorescens; [2]): 10.7 ppm | Minimum Inhibitory Concentration, Mixture (Pseudomonas fluorescens; Table 1, concentration of the component in SP+PB mixture, SP/PB ratio 3-10, 3 days): 1.2 ppm | Minimum Inhibitory Concentration, Compound Used Alone (Pseudomonas fluorescens; [3]): 6.7 ppm | Minimum Inhibitory Concentration, Mixture (Pseudomonas fluorescens; Table 2, concentration of the component in ZP+PB mixture, ZP/PB ratio 8-16, 6 days): 0.4 ppm | Minimum Inhibitory Concentration, Compound Used Alone (Pseudomonas oleovorans; [2]): 0.3 ppm | Minimum Inhibitory Concentration, Mixture (Pseudomonas oleovorans; [10]): < 0.1 ppm | Minimum Inhibitory Concentration, Compound Used Alone (Pseudomonas oleovorans; [3]): 0.5 ppm | Minimum Inhibitory Concentration, Mixture (Pseudomonas oleovorans; Table 2, concentration of the component in ZP+PB mixture, ZP/PB ratio 16-32, 6 days): 0.2 ppm | Minimum Inhibitory Concentration, Compound Used Alone (Pseudomonas rubescens; [2]): < 0.1 ppm | Minimum Inhibitory Concentration, Mixture (Pseudomonas rubescens; [10]): < 0.1 ppm | Minimum Inhibitory Concentration, Compound Used Alone (Pseudomonas rubescens; [3]): < 0.1 ppm | Minimum Inhibitory Concentration, Mixture (Pseudomonas rubescens; Table 2, concentration of the component in ZP+PB mixture, ZP/PB ratio 256, 6 days): < 0.1 ppm | Minimum Inhibitory Concentration, Compound Used Alone [1, 4]: 32.0 ppm | Minimum Inhibitory Concentration, Mixture ([1]; Table 1, concentration of the component in SP+PB mixture, SP/PB ratio 1/10-1/3, 6-7 days): 26.7 ppm | Minimum Inhibitory Concentration, Compound Used Alone [1, 5]: 53.0 ppm | Minimum Inhibitory Concentration, Mixture ([1]; Table 2, concentration of the component in ZP+PB mixture, ZP/PB ratio 1/4-1/2, 7 days): 26.7 ppm | Minimum Inhibitory Concentration, Mixture (Fusarium sp.; [8]): 32.0 ppm | Minimum Inhibitory Concentration, Compound Used Alone (Fusarium sp.; Table 2, alone, Tryptic Soy Broth, 7 days, PB sulfate 7730 units/mg): 106.7 ppm
